Measurements reported in patent US10077288B2, “Hydroxystatin derivatives for the treatment of arthrosis” (Merck Patent GmbH, priority 2012, dated 2018).

Assays:
[1] = target: T1, cathepsin D isolated from the human liver (Homo sapiens, UniProt P07339); assay: In-vitro fluorescence assay for identification of cathepsin D inhibitors; format: biochemical; settings: human liver cathepsin D 1.4 nM, pH 5.5; read-out: CatD assay IC50-(M)
T1 construct: cathepsin D isolated from the human liver (Sigma-Aldrich); purchased Sigma-Aldrich; host or cells: human liver (tissue-derived, not recombinant)
Procedure, shortened: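 Continuous FRET assay: human liver cathepsin D (1.4 nM final) preincubated 10 min at room temperature with serially diluted compound in 100 mM sodium acetate, 1.25% DMSO, 0.25% Chaps, pH 5.5. Started with 5 μM MCA-GKPILFFRLK(Dnp)d-R-NH2; fluorescence increase (ex 340/em 450 nm) over 60 min at room temperature compared with no-compound control.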

[2] = system: bovine explants (cartilage degradation, liberation of GAG); assay: Cartilage explant assay: pH-induced cartilage degradation, GAG release; format: cell-based; settings: Bos taurus, 72 h, pH 5.5, 3 days
From the text: EXAMPLE 5: CARTILAGE EXPLANT ASSAY
In order to investigate the effect of potential cathepsin D inhibitors on cartilage degradation, a pH-induced model based on bovine explants is used. The pH of the medium in which the explants are cultivated is matched here to the pathophysiological pH of an arthrotic knee. This pH is pH 5.5. In this ex vivo model, potential cathepsin D inhibitors are subsequently investigated for their action with respect to stopping of the cartilage degradation process. If the cartilage is destroyed, glycosaminoglycans (GAGs) are released into the cell culture supernatant. The amount of GAGs liberated can be determined quantitatively with the aid of DMMB (dimethylmethylene blue hydrochloride). If sulfated GAGs are detected using dimethylmethylene blue hydrochloride, the decrease in the absorption at 633 nm is utilised. […] In order to determine the concentration, a calibration line is also recorded using chondroitin sulfate.
1.) Procedure: pH-Induced Cartilage Degradation of Bovine Explants
The bovine explants are firstly prepared. The induction of the cartilage degradation is carried out in 96-multiwell plates. One explant is cultivated per well. In each case, 200 μl of DMEM (incubation medium pH 5.5) without FBS+30 μg/ml of ascorbic acid are added. Thus negative control, explants (n=4) are incubated at pH 7.4 (without FBS). This control is not included in the calculation of the data, but instead ensures that the pH change has the desired effect on the liberation of GAG. At this point, the substances to be tested are added. No pre-incubation of the explants is carried out. The explants are cultivated with the corresponding substances for 3 days in the incubator at 37° C. and 7.5% CO2.
In order to investigate the effect of cathepsin D inhibitors on the liberation of GAG (glycosaminoglycan), the substances are employed in the desired concentration and cultivated for 3 days. The compounds to be tested are tested in a first experiment in a concentration of 1 μM and 1% of DMSO. Substances which have an effect of >50% on the liberation of GAG (this corresponds to <50% of the control in the Assay Explorer) are tested in the next experiment at 100 nM and 1% of DMSO. Substances which have an effect of >50% on the liberation of GAG under these conditions (this corresponds to <50% of the control in the Assay Explorer) are tested in a concentration/effect relationship. The compounds here are investigated in the following concentrations: 30 μM, 10 μM, 3 μM, 1 μM, 0.3 μM, 0.1 μM, 0.03 μM, 0.01 μM.
The positive control used is pepstatin A with a concentration of 0.01 μM. The assay window is defined by the control (pH 5.5), defined as 0% effect, and the control pH 5.5+0.01 μM pepstatin A, defined as 100% effect. After incubation for 3 days, the cell culture supernatants are collected and stored at −20° C. or measured directly. The amount of liberated GAG is measured photometrically.
The effect (1 value) of the respective substance in % based on the positive control (pH 5.5+0.01 μM pepstatin A) and the negative control (pH 5.5) is reported for concentrations of 1 μM and 100 nM. The value represents the average of 4 replicants. In the determination of a concentration/effect relationship, an IC50 value is reported to the database (Assay Explorer).
The cell culture supernatants (200 μl) are either measured directly or stored at −20° C. […] A rapid colour reaction occurs, which is subsequently measured at 633 nm using a plate reader (for example Envision). […]

T1 sequence (P07339 65-161 limits assumed): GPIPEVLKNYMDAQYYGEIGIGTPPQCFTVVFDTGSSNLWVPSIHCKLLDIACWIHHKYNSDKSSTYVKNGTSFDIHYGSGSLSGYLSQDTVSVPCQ
T1 sequence (P07339 169-412 limits assumed): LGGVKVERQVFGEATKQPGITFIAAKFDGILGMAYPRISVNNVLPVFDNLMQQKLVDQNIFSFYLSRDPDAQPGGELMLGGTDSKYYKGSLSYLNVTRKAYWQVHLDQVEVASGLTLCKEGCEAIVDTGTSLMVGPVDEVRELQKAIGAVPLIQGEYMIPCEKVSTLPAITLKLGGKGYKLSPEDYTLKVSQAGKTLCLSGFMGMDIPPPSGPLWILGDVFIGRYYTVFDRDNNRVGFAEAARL

Row | Structure (SMILES) | IC50 [1] [M] | IC50 [2] [nM]
1 | CC[C@H](C)[C@H](NC(=O)C[C@H](O)[C@H](Cc1ccccc1)NC(=O)[C@@H](NC(=O)CCc1ccccc1)C(C)C)C(=O)N[C@H](C(=O)O)C(C)C [Compound 4, (S)-2-((2S,3S)-2-{(3S,4S)-3-hydroxy-4-[(S)-3-methyl-2-(3-phenyl-propionylamino)butyrylamino]-5-phenylpentanoylamino}-3-methylpentanoylamino)-3-methylbutyric acid] | 3e-08 | 60.6
2 | CC[C@H](C)[C@H](NC(=O)C[C@H](O)[C@H](Cc1ccccc1)NC(=O)[C@@H](NC(=O)CCCc1ccccc1)C(C)C)C(=O)N[C@H](C(=O)O)C(C)C [Compound 5, (S)-2-((2S,3S)-2-{(3S,4S)-3-hydroxy-4-[(S)-3-methyl-2-(4-phenyl-butyrylamino)butyrylamino]-5-phenylpentanoylamino}-3-methylpentanoylamino)-3-methylbutyric acid] | 3.41e-08 | 989
3 | CC[C@H](C)[C@H](NC(=O)C[C@H](O)[C@H](Cc1ccccc1)NC(=O)[C@@H](NC(=O)Cc1cccc(OC)c1)C(C)C)C(=O)N[C@H](C(=O)O)C(C)C [Compound 20, (S)-2-[(2S,3S)-2-((3S,4S)-3-hydroxy-4-{(S)-2-[2-(3-methoxyphenyl)-acetylamino]-3-methylbutyrylamino}-5-phenylpentanoylamino)-3-methylpentanoylamino]-3-methylbutyric acid] | 1.2e-08 | 47.9
